For test [1], the target named is Epidermal growth factor receptor (Homo sapiens, UniProt P00533). Put plainly: Inhibition of autophosphorylation of His6-tagged EGFR cytoplasmic domain (unknown origin) expressed in Sf9 cells by DELFIA time resolved fluorometry. Format: cell-based.
Test [2] relates to MCF7. Briefly: cells. It is filed as functional, cell-based. The conditions noted are these: Homo sapiens, MCF7, 48 h.
Description: Antiproliferative activity against Homo sapiens (human) MCF-7 cells overexpressing EGFR assessed as inhibition of cell survival after 48 hr by MTT assay

pIC50: −log10 of the molar value.

Sequence of Epidermal growth factor receptor (P00533 whole entry, the tested form may be a part): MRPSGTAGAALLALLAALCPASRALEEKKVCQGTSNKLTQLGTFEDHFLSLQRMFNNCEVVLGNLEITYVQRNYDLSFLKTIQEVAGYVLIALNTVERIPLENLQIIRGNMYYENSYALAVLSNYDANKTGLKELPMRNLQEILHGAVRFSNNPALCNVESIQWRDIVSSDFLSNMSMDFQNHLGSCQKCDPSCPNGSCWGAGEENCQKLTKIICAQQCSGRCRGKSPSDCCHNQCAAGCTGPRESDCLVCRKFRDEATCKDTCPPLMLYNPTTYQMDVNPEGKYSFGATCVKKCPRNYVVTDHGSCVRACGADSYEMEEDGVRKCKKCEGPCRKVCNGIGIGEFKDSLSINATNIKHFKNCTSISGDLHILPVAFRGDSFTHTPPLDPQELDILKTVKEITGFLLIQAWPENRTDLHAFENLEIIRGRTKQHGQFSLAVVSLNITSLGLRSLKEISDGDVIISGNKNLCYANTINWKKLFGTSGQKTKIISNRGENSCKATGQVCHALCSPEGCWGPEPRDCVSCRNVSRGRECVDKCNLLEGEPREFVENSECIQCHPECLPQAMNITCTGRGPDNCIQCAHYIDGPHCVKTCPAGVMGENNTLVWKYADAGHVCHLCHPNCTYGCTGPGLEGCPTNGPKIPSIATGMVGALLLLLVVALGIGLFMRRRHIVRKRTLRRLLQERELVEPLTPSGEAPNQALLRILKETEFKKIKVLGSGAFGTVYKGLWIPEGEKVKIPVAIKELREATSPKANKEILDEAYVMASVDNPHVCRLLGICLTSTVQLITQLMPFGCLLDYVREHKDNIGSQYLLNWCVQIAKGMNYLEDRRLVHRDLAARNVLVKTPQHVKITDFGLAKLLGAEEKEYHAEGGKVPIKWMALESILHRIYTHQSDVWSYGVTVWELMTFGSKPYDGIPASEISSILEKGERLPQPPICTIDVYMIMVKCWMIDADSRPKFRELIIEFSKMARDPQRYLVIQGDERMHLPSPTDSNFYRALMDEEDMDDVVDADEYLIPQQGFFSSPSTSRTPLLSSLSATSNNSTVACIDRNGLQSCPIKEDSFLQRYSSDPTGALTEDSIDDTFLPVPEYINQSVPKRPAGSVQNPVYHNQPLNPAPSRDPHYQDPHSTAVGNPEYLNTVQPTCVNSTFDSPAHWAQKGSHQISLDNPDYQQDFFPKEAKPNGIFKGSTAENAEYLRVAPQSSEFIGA

Regarding `CC(C)c1ccc(NC(=O)/C=C/c2ccccc2)cc1`, the pIC50 – broadly, the IC50 on a negative log10 scale, so that one unit is a factor of ten – is 4.84 in test [1] and 5.27 in test [2]. With `CCOc1ccccc1NC(=O)/C=C/c1ccccc1`, the results for the pIC50 in test [1] and in test [2] were 5.03 and 5.61, respectively.

Consider `CCOc1ccc(NC(=O)/C=C/c2ccccc2)cc1`, for which the negative-log IC50 (pIC50) is 4.99 in test [1] and 5.48 in test [2]. On to `O=C(/C=C/c1ccccc1)Nc1ccc(F)cc1F`, for which the pIC50 in test [1] was 4.93; in test [2] it was 5.38.

Take `O=C(/C=C/c1ccccc1)Nc1cc(F)cc(F)c1`: the negative-log IC50 (pIC50) is 4.88 in test [1] and 5.33 in test [2]. In the case of `O=C(/C=C/c1ccccc1)Nc1cc(F)c(F)c(F)c1`, the pIC50 in test [1] is 4.89; in test [2], 5.54. Regarding `O=C(/C=C/c1ccccc1)Nc1ccc(Cl)cc1Cl`, the pIC50 in test [1] was 4.79; in test [2], 5.40. The like results for `O=C(/C=C/c1ccccc1)Nc1cc(Cl)cc(Cl)c1` were, in that order, 4.86 and 5.35. On to `O=C(/C=C/c1ccccc1)Nc1ccccc1Br`, for which the results for the negative logarithm of the IC50 (pIC50) in test [1] and in test [2] were 4.80 and 5.39, respectively.

Turning to `C#Cc1cccc(Nc2ncnc3cc(OCCOC)c(OCCOC)cc23)c1` [ERLOTINIB], in test [2], the pIC50 is 6.66. As for `CCCCCCCCCCCCNC(=O)/C=C/c1ccccc1` [N-DODECYLCINNAMAMIDE], the pIC50 in test [1] was 4.41; in test [2], 4.87. The like results for `Cc1cccc(NC(=O)/C=C/c2ccccc2)c1` [N-M-TOLYLCINNAMAMIDE] were, in that order, 4.71 and 5.23. With `Cc1ccccc1NC(=O)/C=C/c1ccccc1` [N-O-TOLYLCINNAMAMIDE], the values for the pIC50 in test [1] and in test [2] were 4.91 and 5.50, respectively.

As to `Cc1ccc(NC(=O)/C=C/c2ccccc2)cc1` [N-P-TOLYLCINNAMAMIDE], the negative logarithm of the IC50 (pIC50) in test [1] is 4.90; in test [2], 5.49. The like results for `CC(C)(C)NC(=O)/C=C/c1ccccc1` [N-TERT-BUTYLCINNAMAMIDE] were, in that order, 4.53 and 4.95.

For the origin of these results see ChEMBL document CHEMBL3046969, “Synthesis, structure, and biological assay of cinnamic amides as potential EGFR kinase inhibitors” (Med Chem Res, 2013).
